Data published in US11617711B2, “Compositions and methods for dental care” (UNIVERSITY OF WASHINGTON, priority 2018, dated 2023).
“Also recorded” adds a separate entry of the source.

How the values were obtained:
[1] = Thermal cycling of remineralized dentin samples in artificial saliva, SEM; set-up: species or system human; conditions: 3 rounds remineralized, 2,500 cycles (90 days) between 5 C and 50 C
Protocol: To ensure the thermal durability of the newly formed mineral layer on the dentin surface, thermal cycling tests were conducted on remineralized samples. After three rounds of peptide-guided remineralization, the sample was placed in a vial containing an artificial saliva solution consisting of 130 mM KCl, 20 mM HEPES, 1.5 mM CaCl2, 0.9 mM KH2PO4, and 1 mM NaCl. In order to mimic the temperature changes in the natural oral environment, the remineralized sample was cycled between 5 C and 50 C, holding for 30 seconds at each temperature. SEM images were taken of the mineral layer after 200 cycles (6 days) and 2,500 cycles (90 days) to compare the effects of thermal cycling at different time periods.

[2] = Visual observation of diffusion and mineralization reaction of calcium and phosphate gels on glass slide; assay type: physicochemical; conditions: gel formulation, calcium and phosphate gel drops on glass slide
Text: Active ingredients stored separately in their respective gel/varnish/toothpaste formulations is important in preventing premature mineralization reactions. In all formulations, the peptide is to be delivered first, then the ionic calcium/phosphate or ionic calcium/phosphate/fluoride are delivered second. Understanding the reaction time is useful to characterize the prescribed treatment time and procedure. To inform treatment protocol, an experiment was designed in which two drops of gels containing calcium and phosphate were mixed with peptide gel and placed next each other on a glass slide close enough that upon subsequent spreading of the two droplets, they would come to contact with each other at their respective edges. Mineralization reactions were monitored visually be observing parts of the gels turning from clear (unreacted) to white (reacted).
Then the inverses of both quantities were taken to enable the determination of the diffusion constant based on the following equation: 1/t=D (1/x), where t is time, x is the width of reacted mineral (appear as white in FIG. 18) and D is the diffusion constant in units of mm/min. Shown in FIG. 19 is an example of the derived diffusion constants.

[3] = Fluoride delivery to tooth surface, EDXS of mineral layer; conditions: tooth surface treated with shADP5, then ionic fluoride (1100 ppm) delivered with ionic PO4
Protocol: shADP5 enables the delivery of ionic fluoride delivery to the tooth surface. After the tooth surface was treated shADP5, ionic fluoride was delivered with ionic PO4.

Sequence | mineral layer after thermal cycling [1] | extent of mineralization reaction versus without peptide [2] | fluoride in the mineral layer (EDXS) [3]
SYEKSHSQAINTDRT [sADP5, shortened amelogenin derived peptide 5] | still present; also recorded: thermally stable |  | 
SYENSHSQAINVDRT [shADP5] |  | more extensive | incorporated
